Measured values as given in the supplement of paper PMC10733146.

Assays:
Test in all cases: viability relative to DMSO control (fraction); higher = less drug effect (more viable cells)
Conditions in all cases: 48 h
[1] = test system: primary ALL patient cells (S048)
Summary of the method: (§1)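 Using 384-well plates with compounds already plated at five concentrations, one well per concentration, 4 × 10^4 primary mononuclear tumour cells were added per well. Cells were Ficoll-isolated from blood or bone marrow or came from processed lymph node, fresh or cryopreserved. They were kept for 48 h at 37 °C and 5% CO2 in RPMI-1640 supplemented with penicillin/streptomycin, L-glutamine and human serum, and viability was read as CellTiter-Glo luminescence relative to the median of 16 inner DMSO wells.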

[2] = test system: primary ALL patient cells (S088)
Summary of the method: as §1

[3] = test system: primary AML patient cells (S006)
Summary of the method: as §1

[4] = test system: primary AML patient cells (S055)
Summary of the method: as §1

[5] = test system: primary AML patient cells (S056)
Summary of the method: as §1

[6] = test system: primary AML patient cells (S060)
Summary of the method: as §1

[7] = test system: primary AML patient cells (S071)
Summary of the method: as §1

[8] = test system: primary AML patient cells (S072)
Summary of the method: as §1

[9] = test system: primary AML patient cells (S079)
Summary of the method: as §1

[10] = test system: primary AML patient cells (S089)
Summary of the method: as §1

[11] = test system: primary CLL patient cells (S031)
Summary of the method: as §1

[12] = test system: primary CLL patient cells (S043)
Summary of the method: as §1

[13] = test system: primary DLBCL patient cells (S082)
Summary of the method: as §1

[14] = test system: primary MCL patient cells (S063)
Summary of the method: as §1

CC(C)(C)C[C@@H]1N[C@@H](C(=O)N[C@H]2CC[C@H](O)CC2)[C@H](c2cccc(Cl)c2F)[C@]12C(=O)Nc1cc(Cl)ccc12 [MI-773]
viability ([1]; 0.008 µM): 1.01 | viability ([1]; 0.04 µM): 0.992 | viability ([1]; 0.2 µM): 0.799 | viability ([1]; 1 µM): 0.472 | viability ([1]; 5 µM): 0.0627 | viability ([2]; 0.008 µM): 1 | viability ([2]; 0.04 µM): 0.88 | viability ([2]; 0.2 µM): 0.701 | viability ([2]; 1 µM): 0.366 | viability ([2]; 5 µM): 0.151 | viability ([3]; 0.008 µM): 0.915 | viability ([3]; 0.04 µM): 0.761 | viability ([3]; 0.2 µM): 0.481 | viability ([3]; 1 µM): 0.194 | viability ([3]; 5 µM): 0.0491 | viability ([4]; 0.008 µM): 1.01 | viability ([4]; 0.04 µM): 1.01 | viability ([4]; 0.2 µM): 0.997 | viability ([4]; 1 µM): 0.919 | viability ([4]; 5 µM): 0.409 | viability ([5]; 0.008 µM): 1.03 | viability ([5]; 0.04 µM): 0.9 | viability ([5]; 0.2 µM): 0.696 | viability ([5]; 1 µM): 0.296 | viability ([5]; 5 µM): 0.117 | viability ([6]; 0.008 µM): 1.06 | viability ([6]; 0.04 µM): 0.997 | viability ([6]; 0.2 µM): 1.09 | viability ([6]; 1 µM): 0.99 | viability ([6]; 5 µM): 1.09 | viability ([7]; 0.008 µM): 0.991 | viability ([7]; 0.04 µM): 0.732 | viability ([7]; 0.2 µM): 0.32 | viability ([7]; 1 µM): 0.132 | viability ([7]; 5 µM): 0.0874 | viability ([8]; 0.008 µM): 1.06 | viability ([8]; 0.04 µM): 0.843 | viability ([8]; 0.2 µM): 0.934 | viability ([8]; 1 µM): 0.775 | viability ([8]; 5 µM): 0.762 | viability ([9]; 0.008 µM): 1.01 | viability ([9]; 0.04 µM): 1.01 | viability ([9]; 0.2 µM): 1.01 | viability ([9]; 1 µM): 0.901 | viability ([9]; 5 µM): 0.636 | viability ([10]; 0.008 µM): 0.993 | viability ([10]; 0.04 µM): 0.973 | viability ([10]; 0.2 µM): 0.938 | viability ([10]; 1 µM): 0.842 | viability ([10]; 5 µM): 0.493 | viability ([11]; 0.008 µM): 0.97 | viability ([11]; 0.04 µM): 0.819 | viability ([11]; 0.2 µM): 0.593 | viability ([11]; 1 µM): 0.439 | viability ([11]; 5 µM): 0.0647 | viability ([12]; 0.008 µM): 1.05 | viability ([12]; 0.04 µM): 0.949 | viability ([12]; 0.2 µM): 1 | viability ([12]; 1 µM): 0.879 | viability ([12]; 5 µM): 0.441 | viability ([13]; 0.008 µM): 1.07 | viability ([13]; 0.04 µM): 0.971 | viability ([13]; 0.2 µM): 1.14 | viability ([13]; 1 µM): 0.98 | viability ([13]; 5 µM): 1.03 | viability ([14]; 0.008 µM): 1.07 | viability ([14]; 0.04 µM): 1.05 | viability ([14]; 0.2 µM): 0.995 | viability ([14]; 1 µM): 0.705 | viability ([14]; 5 µM): 0.246

O=C1c2c(O)ccc(O)c2C(=O)c2c(NCCNCCO)ccc(NCCNCCO)c21 [Mitoxantrone]
viability ([1]; 0.008 µM): 0.449 | viability ([1]; 0.04 µM): 0.0767 | viability ([1]; 0.2 µM): 0.113 | viability ([1]; 1 µM): 0.0232 | viability ([1]; 5 µM): 0.0139 | viability ([2]; 0.008 µM): 0.535 | viability ([2]; 0.04 µM): 0.271 | viability ([2]; 0.2 µM): 0.216 | viability ([2]; 1 µM): 0.0605 | viability ([2]; 5 µM): 0.0218 | viability ([3]; 0.008 µM): 0.426 | viability ([3]; 0.04 µM): 0.155 | viability ([3]; 0.2 µM): 0.0754 | viability ([3]; 1 µM): 0.0534 | viability ([3]; 5 µM): 0.0375 | viability ([4]; 0.008 µM): 0.978 | viability ([4]; 0.04 µM): 0.869 | viability ([4]; 0.2 µM): 0.821 | viability ([4]; 1 µM): 0.729 | viability ([4]; 5 µM): 0.234 | viability ([5]; 0.008 µM): 0.397 | viability ([5]; 0.04 µM): 0.17 | viability ([5]; 0.2 µM): 0.128 | viability ([5]; 1 µM): 0.0823 | viability ([5]; 5 µM): 0.0488 | viability ([6]; 0.008 µM): 0.974 | viability ([6]; 0.04 µM): 0.963 | viability ([6]; 0.2 µM): 1.07 | viability ([6]; 1 µM): 0.332 | viability ([6]; 5 µM): 0.016 | viability ([7]; 0.008 µM): 0.139 | viability ([7]; 0.04 µM): 0.125 | viability ([7]; 0.2 µM): 0.124 | viability ([7]; 1 µM): 0.102 | viability ([7]; 5 µM): 0.0662 | viability ([8]; 0.008 µM): 0.839 | viability ([8]; 0.04 µM): 0.715 | viability ([8]; 0.2 µM): 0.661 | viability ([8]; 1 µM): 0.152 | viability ([8]; 5 µM): 0.0445 | viability ([9]; 0.008 µM): 0.801 | viability ([9]; 0.04 µM): 0.655 | viability ([9]; 0.2 µM): 0.526 | viability ([9]; 1 µM): 0.133 | viability ([9]; 5 µM): 0.0172 | viability ([10]; 0.008 µM): 0.339 | viability ([10]; 0.04 µM): 0.966 | viability ([10]; 0.2 µM): 0.0966 | viability ([10]; 1 µM): 0.0273 | viability ([10]; 5 µM): 0.0313 | viability ([11]; 0.008 µM): 0.614 | viability ([11]; 0.04 µM): 0.383 | viability ([11]; 0.2 µM): 0.335 | viability ([11]; 1 µM): 0.0955 | viability ([11]; 5 µM): 0.0133 | viability ([12]; 0.008 µM): 0.739 | viability ([12]; 0.04 µM): 0.849 | viability ([12]; 0.2 µM): 0.488 | viability ([12]; 1 µM): 0.0542 | viability ([12]; 5 µM): 0.0236 | viability ([13]; 0.008 µM): 0.886 | viability ([13]; 0.04 µM): 0.691 | viability ([13]; 0.2 µM): 0.541 | viability ([13]; 1 µM): 0.538 | viability ([13]; 5 µM): 0.0152 | viability ([14]; 0.008 µM): 1.02 | viability ([14]; 0.04 µM): 0.812 | viability ([14]; 0.2 µM): 0.598 | viability ([14]; 1 µM): 0.246 | viability ([14]; 5 µM): 0.0145
